In US20230090884A1, “DEVICE AND METHODS FOR ISOLATING EXTRACELLULAR MATRIX BODIES” (AUFBAU MEDICAL INNOVATIONS LIMITED, priority 2020, published 2023) one finds EC50 data, which are given here for two substances.

This assay in a line: Dose-response in microfluidic chip device: change in chip pressure (intraocular pressure model) after treatment of bovine vitreous humor. The settings on record: 12.5% homogenized BVH in PBS incubated with compound at 37° C. for 1 hour; 7 ul injected; relative change in chip pressure recorded for 50 min; half-maximal response; read-out: EC50 for treatment of bovine vitreous humor (glaucoma model). How it is done:
The compound bivalirudin TFA was tested in bovine vitreous humor (BVH) in a microfluidic chip device. A solution of 25% homogenized BVH in PBS buffer was prepared and diluted with an equal amount of a solution of the compound, so that the total BVH concentration was 12.5%. The sample was vortexed and incubated at 37° C. for 1 hour. A control of either PBS buffer or PBS with 10% ethanol or DMSO was used and incubated with BVH under the same conditions.
The test compound-BVH solution was introduced into the reservoir of the microfluidic chip device and flow rate and pressure change were recorded. Various concentrations of the compound were tested for effects on the treatment of bovine vitreous humor. 7 ul of each test solution was injected into the microfluidic chip through a sample injector. Recording of the flow rate and pressure change was continued for 50 additional minutes after the sample injection. The relative change in chip pressure for the entire course of the experiment was obtained.
The EC50 value was taken as the point on the x-axis at which the logarithmic function of the micromolar concentration of the compound produced half-maximal response. […] The response was calculated by taking the absolute difference between the control and test value for each concentration. […]

Usually EC50 stands for the concentration at which the effect is half-maximal. Take bivalirudin TFA: the EC50 amounted to 1.2 nM. As for polymyxin B sulfate, the EC50 amounted to 4.3 nM.
